Test results published in ChEMBL document CHEMBL5390257, “Fused Tetrahydroquinolines Are Interfering with Your Assay” (J Med Chem, 2023).
pIC50, pKi: −log10 of the molar value.

Experiments:
[1] = Inhibition of MurA (unknown origin) preincubated for 30 mins followed by substrate addition and measured after 8 mins by spectrometric analysis; set-up: species or system Bacteria
[2] = biological target: T1, Receptor-type tyrosine-protein phosphatase R (Homo sapiens) (UniProt Q15256); assay: Inhibition of PTPRR (unknown origin) using pNPP as substrate assessed as fraction of control at 100 uM by high-throughput screening assay relative to control
T1 sequence (whole entry): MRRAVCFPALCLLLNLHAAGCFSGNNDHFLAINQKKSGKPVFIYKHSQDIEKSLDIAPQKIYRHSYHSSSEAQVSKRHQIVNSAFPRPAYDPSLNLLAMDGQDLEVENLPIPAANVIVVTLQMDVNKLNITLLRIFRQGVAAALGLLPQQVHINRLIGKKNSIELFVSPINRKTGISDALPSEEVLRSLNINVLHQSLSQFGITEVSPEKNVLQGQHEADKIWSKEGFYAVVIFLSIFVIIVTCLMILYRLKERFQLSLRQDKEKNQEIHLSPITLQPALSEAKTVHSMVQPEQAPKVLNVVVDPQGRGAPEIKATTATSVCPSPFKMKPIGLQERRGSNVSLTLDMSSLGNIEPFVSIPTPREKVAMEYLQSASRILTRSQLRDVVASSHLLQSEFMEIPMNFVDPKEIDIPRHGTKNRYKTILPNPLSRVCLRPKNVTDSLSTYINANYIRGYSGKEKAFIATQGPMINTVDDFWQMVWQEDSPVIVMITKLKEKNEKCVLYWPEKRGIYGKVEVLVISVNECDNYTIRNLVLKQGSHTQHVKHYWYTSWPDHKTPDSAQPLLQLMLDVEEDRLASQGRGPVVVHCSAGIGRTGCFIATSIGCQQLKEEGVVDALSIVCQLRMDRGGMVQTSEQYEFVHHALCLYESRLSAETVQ

[3] = biological target: T2, Tyrosine-protein phosphatase non-receptor type 7 (Homo sapiens) (UniProt P35236); assay: Inhibition of PTPN7 (unknown origin) using pNPP as substrate assessed as fraction of control at 100 uM by high-throughput screening assay relative to control
T2 sequence (whole entry): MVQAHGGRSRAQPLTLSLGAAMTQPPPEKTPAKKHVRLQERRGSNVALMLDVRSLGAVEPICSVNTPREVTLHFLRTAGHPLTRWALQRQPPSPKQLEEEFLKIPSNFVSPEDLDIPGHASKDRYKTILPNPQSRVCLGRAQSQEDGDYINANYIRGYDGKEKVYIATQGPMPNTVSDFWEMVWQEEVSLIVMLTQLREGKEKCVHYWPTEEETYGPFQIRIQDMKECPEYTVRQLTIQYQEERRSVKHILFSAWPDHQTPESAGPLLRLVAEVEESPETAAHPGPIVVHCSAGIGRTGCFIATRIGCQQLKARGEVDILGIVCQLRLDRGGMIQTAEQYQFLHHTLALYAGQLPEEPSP

[4] = biological target: T3, Tyrosine-protein phosphatase non-receptor type 1 (Homo sapiens) (UniProt P18031); assay: Inhibition of PTP1B (unknown origin) using pNPP as substrate assessed as fraction of control at 100 uM by high-throughput screening assay relative to control
T3 sequence (whole entry): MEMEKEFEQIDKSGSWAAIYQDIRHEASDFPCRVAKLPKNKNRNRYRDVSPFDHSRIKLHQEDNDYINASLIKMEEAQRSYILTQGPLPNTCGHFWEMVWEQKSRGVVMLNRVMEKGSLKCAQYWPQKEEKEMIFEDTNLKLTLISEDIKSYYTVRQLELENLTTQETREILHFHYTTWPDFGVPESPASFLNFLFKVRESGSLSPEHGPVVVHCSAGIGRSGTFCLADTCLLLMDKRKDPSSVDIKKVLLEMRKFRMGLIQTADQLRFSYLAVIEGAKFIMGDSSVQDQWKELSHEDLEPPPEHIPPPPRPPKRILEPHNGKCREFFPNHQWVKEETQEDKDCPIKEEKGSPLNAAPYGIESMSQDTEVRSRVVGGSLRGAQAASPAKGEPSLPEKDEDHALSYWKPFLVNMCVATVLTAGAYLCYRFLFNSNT

[5] = biological target: T4, Tyrosine-protein phosphatase non-receptor type 5 (Homo sapiens) (UniProt P54829); assay: Inhibition of PTPN5 (unknown origin) using pNPP as substrate assessed as fraction of control at 100 uM by high-throughput screening assay relative to control
T4 sequence (whole entry): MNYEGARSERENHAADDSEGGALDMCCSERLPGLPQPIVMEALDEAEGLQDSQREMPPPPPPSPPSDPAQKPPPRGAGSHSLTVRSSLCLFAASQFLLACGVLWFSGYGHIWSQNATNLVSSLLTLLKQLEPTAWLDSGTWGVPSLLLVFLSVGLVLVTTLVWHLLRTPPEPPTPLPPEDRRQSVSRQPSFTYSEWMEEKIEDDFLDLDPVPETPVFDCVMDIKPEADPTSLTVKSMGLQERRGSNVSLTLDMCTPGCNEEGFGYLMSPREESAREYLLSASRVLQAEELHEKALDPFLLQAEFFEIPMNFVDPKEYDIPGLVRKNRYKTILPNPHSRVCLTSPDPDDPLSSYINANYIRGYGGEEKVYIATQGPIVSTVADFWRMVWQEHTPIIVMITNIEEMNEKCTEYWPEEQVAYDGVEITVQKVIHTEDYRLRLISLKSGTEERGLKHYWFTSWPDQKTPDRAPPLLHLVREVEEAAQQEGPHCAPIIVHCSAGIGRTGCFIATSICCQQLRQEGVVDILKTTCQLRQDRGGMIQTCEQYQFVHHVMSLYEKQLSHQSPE

[6] = biological target: T5, M-phase inducer phosphatase 2 (Homo sapiens, UniProt P30305); assay: Inhibition of full-length 6His/GST-tagged recombinant human CDC25B using OMFP as substrate incubated for 60 mins by fluorescence based analysis
T5 sequence (P30305 whole entry): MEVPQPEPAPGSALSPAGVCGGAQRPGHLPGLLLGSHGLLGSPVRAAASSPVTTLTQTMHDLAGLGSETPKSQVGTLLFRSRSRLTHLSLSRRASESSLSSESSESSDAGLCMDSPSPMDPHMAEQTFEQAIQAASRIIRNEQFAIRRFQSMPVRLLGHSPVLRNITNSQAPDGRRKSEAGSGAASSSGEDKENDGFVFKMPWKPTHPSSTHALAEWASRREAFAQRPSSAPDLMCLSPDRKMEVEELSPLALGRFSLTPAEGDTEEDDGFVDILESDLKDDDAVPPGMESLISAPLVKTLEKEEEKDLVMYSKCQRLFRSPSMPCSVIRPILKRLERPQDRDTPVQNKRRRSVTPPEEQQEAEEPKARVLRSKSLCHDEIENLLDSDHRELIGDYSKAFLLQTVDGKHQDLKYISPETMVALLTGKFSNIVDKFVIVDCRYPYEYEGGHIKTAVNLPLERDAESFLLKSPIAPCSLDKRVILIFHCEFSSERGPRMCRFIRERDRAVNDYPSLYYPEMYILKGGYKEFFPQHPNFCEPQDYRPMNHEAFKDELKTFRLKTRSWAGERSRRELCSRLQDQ

[7] = biological target: T6, Tyrosine-protein phosphatase non-receptor type 1 (Homo sapiens, UniProt P18031); assay: Inhibition of human recombinant PTP1B using OMFP as substrate incubated for 60 mins by fluorescence based analysis
T6 sequence (P18031 whole entry): T3 sequence (whole entry)

[8] = biological target: Serine/threonine-protein kinase PLK1 (Homo sapiens, UniProt P53350); assay: Inhibition of GST-tagged recombinant PLK1 (unknown origin) using 5-carboxyfluorescein-KKRNRRLSVA-OH peptide as substrate incubated for 3 hrs in presence of ATP by HTS TR-FRET assay
[9] = biological target: SH3 and multiple ankyrin repeat domains protein 3 (Mus musculus, UniProt Q4ACU6); assay: Binding affinity to His-tagged murine Shank3 PDZ domain assessed as inhibition constant by fluorescence polarization assay
[10] = Binding affinity to Yellow fever virus 17D recombinant NS5 N-terminal capping enzyme domain expressed in Escherichia coli BL21 (DE3) assessed as inhibition constant incubated for 1 hr by high-throughput screening fluorescence polarization assay
[11] = biological target: Diacylglycerol kinase alpha (Sus scrofa, UniProt P20192); assay: Inhibition of GST-fused pig DGK alpha expressed in Sf9 insect cells incubated for 2 hrs by HTS ADP-Glo DGK assay
[12] = Inhibition of Helicobacter pylori recombinant IspD domain of IspDF by HTS based photometric assay

Sequence of SH3 and multiple ankyrin repeat domains protein 3 (Q4ACU6 whole entry, the tested form may be a part): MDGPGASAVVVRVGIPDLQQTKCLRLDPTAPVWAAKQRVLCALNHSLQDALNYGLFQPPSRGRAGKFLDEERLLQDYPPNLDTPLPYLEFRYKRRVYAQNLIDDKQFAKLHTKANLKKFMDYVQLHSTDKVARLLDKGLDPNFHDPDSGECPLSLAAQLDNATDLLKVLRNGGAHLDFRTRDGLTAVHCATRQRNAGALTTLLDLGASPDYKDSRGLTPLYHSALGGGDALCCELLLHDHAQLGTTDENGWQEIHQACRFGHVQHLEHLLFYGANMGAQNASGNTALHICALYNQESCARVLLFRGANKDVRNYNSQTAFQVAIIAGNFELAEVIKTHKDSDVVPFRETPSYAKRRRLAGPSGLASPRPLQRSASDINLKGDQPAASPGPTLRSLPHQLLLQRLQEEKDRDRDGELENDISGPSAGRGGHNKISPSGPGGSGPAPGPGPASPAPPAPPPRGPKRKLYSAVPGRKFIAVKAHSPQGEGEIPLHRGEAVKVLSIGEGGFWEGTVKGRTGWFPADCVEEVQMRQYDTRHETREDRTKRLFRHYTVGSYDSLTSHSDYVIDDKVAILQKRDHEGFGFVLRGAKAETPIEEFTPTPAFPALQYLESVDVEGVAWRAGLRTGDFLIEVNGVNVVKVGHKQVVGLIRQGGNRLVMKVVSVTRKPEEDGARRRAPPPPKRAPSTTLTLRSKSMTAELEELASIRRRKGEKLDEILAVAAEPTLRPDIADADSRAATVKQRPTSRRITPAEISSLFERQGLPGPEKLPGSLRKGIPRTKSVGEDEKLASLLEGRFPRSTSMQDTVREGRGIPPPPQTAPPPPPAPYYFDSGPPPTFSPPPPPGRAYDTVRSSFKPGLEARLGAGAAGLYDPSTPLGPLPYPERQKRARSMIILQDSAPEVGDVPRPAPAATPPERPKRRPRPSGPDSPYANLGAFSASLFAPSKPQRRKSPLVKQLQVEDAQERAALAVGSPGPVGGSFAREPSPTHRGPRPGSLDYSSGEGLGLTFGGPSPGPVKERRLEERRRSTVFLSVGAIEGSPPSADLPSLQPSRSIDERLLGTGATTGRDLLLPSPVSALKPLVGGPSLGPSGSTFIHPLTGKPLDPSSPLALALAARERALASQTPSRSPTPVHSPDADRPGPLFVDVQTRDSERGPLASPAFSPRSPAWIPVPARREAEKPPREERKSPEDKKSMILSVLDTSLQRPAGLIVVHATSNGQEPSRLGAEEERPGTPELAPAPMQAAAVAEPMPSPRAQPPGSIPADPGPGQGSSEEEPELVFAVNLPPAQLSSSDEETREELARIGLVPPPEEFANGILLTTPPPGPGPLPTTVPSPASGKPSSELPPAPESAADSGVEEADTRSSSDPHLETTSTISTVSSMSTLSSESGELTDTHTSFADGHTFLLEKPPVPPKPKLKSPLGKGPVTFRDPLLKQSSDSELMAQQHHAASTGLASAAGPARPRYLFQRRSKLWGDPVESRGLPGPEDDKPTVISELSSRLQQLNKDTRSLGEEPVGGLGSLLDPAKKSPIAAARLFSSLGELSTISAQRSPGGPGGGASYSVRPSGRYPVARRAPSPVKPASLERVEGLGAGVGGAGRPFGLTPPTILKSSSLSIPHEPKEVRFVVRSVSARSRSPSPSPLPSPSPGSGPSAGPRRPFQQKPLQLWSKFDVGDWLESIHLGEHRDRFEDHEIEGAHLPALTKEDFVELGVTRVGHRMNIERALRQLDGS
Sequence of Serine/threonine-protein kinase PLK1 (P53350 whole entry, the tested form may be a part): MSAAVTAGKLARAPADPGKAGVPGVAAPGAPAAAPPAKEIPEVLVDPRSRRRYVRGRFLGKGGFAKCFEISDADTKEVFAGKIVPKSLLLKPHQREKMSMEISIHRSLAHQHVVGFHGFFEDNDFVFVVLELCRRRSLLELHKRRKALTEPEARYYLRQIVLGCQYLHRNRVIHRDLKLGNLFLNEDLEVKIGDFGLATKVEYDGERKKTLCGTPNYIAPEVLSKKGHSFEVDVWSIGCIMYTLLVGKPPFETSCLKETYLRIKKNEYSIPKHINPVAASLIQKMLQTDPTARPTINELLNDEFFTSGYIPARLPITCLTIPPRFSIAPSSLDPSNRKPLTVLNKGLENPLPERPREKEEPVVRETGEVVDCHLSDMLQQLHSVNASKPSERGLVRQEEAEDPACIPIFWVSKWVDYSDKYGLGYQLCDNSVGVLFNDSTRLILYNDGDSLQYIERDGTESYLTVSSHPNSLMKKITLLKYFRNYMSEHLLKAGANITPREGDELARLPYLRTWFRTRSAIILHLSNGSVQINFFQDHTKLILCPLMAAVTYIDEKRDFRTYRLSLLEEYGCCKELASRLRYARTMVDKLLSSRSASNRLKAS
Sequence of Diacylglycerol kinase alpha (P20192 whole entry, the tested form may be a part): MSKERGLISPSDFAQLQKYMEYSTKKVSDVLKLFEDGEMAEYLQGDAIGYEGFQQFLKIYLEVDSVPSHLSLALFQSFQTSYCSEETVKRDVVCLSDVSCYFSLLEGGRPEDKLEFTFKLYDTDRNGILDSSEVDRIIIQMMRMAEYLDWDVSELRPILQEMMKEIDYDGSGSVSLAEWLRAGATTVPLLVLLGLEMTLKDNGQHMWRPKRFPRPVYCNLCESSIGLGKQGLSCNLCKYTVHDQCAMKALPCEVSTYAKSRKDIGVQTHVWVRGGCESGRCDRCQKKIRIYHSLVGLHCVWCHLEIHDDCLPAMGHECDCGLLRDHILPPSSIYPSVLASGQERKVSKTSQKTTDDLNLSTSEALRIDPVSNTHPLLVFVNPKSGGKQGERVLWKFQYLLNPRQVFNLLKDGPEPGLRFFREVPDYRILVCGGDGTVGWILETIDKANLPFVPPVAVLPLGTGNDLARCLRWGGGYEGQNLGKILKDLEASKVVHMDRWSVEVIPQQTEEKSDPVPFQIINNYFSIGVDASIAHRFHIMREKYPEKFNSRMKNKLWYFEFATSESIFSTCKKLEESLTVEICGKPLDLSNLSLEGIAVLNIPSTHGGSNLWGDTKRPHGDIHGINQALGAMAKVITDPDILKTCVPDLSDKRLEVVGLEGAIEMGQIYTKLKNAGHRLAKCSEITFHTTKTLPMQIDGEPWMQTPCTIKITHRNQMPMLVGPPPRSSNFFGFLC

In the case of `O=C(O)C1Nc2cc(-c3cccnc3)ccc2C2C=CCC12` (stereo not drawn), the pIC50 [1] was > 5.30.

With `CC(=O)Nc1ccc2c(c1)NC(C(=O)O)C1CC=CC21` (stereo not drawn) the pIC50 [1] was > 5.30.

With `CN(C)C(=O)c1ccc2c(c1)C1C=CCC1C(C(=O)O)N2` (stereo not drawn) the pIC50 [1] was > 5.30.

With `O=C(O)C1Nc2ccc(Br)cc2C2C=CCC12` (stereo not drawn) the fold change (FC) [2] was 0.08, the fold change (FC) [3] was 0.41 and the fold change (FC) [4] was 0.23. For the same molecule, the fold change (FC) [5] was 0.73.

In the case of `O=C(O)C1Nc2c(F)cccc2C2C=CCC12` (stereo not drawn), the fold change (FC) [2] was 0.08, the fold change (FC) [3] was 0.41 and the fold change (FC) [4] was 0.23. The fold change (FC) [5] was 0.73.

For `NC(=O)c1cccc2c1NC(C(=O)O)C1CC=CC21` (stereo not drawn), the pIC50 [1] was > 5.30.

In the case of `CC(=O)Nc1ccc(OC(=O)c2cccc3c2NC(C(=O)O)C2CC=CC32)cc1` (stereo not drawn), the pIC50 [1] was > 5.30.

For `Cc1ccc2c(c1)C1C=CCC1C(C(=O)O)N2` (stereo not drawn), the pIC50 [1] was > 5.30.

For `O=C(O)C1Nc2ccc(Nc3ccccc3)cc2C2C=CCC12` (stereo not drawn), the pIC50 [1] was > 5.30.

For `O=C(O)c1ccc2c(c1)C1C=CCC1C(C(=O)O)N2` (stereo not drawn), the pIC50 [1] was > 5.30, the fold change (FC) [2] was 0.08 and the pIC50 [6] was 5.60. For the same molecule, the fold change (FC) [3] was 0.41, the fold change (FC) [4] was 0.23 and the pIC50 [7] was 5.18. For the same molecule, the fold change (FC) [5] was 0.73.

With `O=C(O)c1ccc2c(c1)[C@@H]1C=CC[C@@H]1[C@H](c1ccccn1)N2` the pIC50 [8] was 4.77.

With `O=C(O)c1ccc2c(c1)[C@@H]1C=CC[C@@H]1[C@H](C(=O)O)N2` the pKi [9] was 4.15.

`O=C(O)C1Nc2ccc(Cl)cc2C2C=CCC12` (stereo not drawn) showed a pIC50 [6] of 5.60.

In the case of `O=C(O)c1cccc2c1NC(C(=O)O)C1CC=CC21` (stereo not drawn), the pIC50 [1] was > 5.30, the fold change (FC) [2] was 0.08 and the pIC50 [6] was 5.60. The fold change (FC) [3] was 0.41, the fold change (FC) [4] was 0.23 and the fold change (FC) [5] was 0.73.

For `O=C(O)C1Nc2c(I)cccc2C2C=CCC12` (stereo not drawn), the pKi [10] was 5.15.

In the case of `O=C(O)C1Nc2ccc(OC(F)(F)F)cc2C2C=CCC12` (stereo not drawn), the pIC50 [1] was > 5.30.

In the case of `O=C(O)c1ccc([N+](=O)[O-])c2c1N[C@@H](C(=O)O)[C@H]1CC=C[C@@H]21`, the pKi [9] was 4.77.

For `O=C(O)C1Nc2c(O)cccc2C2C=CCC12` (stereo not drawn), the fold change (FC) [2] was 0.08, the fold change (FC) [3] was 0.41 and the fold change (FC) [4] was 0.23. It also gave a fold change (FC) [5] of 0.73.

For `O=C(O)c1cccc2c1C1C=CCC1C(C(=O)O)N2` (stereo not drawn), the pIC50 [1] was > 5.30.

In the case of `COC(=O)c1cccc2c1NC(C(=O)O)C1CC=CC21` (stereo not drawn), the pIC50 [1] was > 5.30.

`O=C(O)C1Nc2ccccc2C2C=CCC12` (stereo not drawn) showed a fold change (FC) [2] of 0.08, a fold change (FC) [3] of 0.41 and a fold change (FC) [4] of 0.23. It also gave a fold change (FC) [5] of 0.73.

With `CNc1ccc2c(c1)C1C=CCC1C(C(=O)O)N2` (stereo not drawn) the pIC50 [1] was > 5.30.

In the case of `CC(=O)c1ccc2c(c1)C1C=CCC1C(C(=O)O)N2` (stereo not drawn), the pIC50 [1] was > 5.30, the fold change (FC) [2] was 0.08 and the fold change (FC) [3] was 0.41. It also gave a pIC50 [11] of 5.22, a fold change (FC) [4] of 0.23 and a fold change (FC) [5] of 0.73.

With `O=C(O)C1Nc2ccc(F)c(Cl)c2C2C=CCC12` (stereo not drawn) the pIC50 [1] was > 5.30.

In the case of `CCOC(=O)C1Nc2cccc(C(=O)O)c2C2C=CCC12` (stereo not drawn), the pIC50 [1] was > 5.30.

`O=C(O)C1Nc2ccc(Oc3ccccc3)cc2C2C=CCC12` (stereo not drawn) showed a pIC50 [12] of 5.62.

For `O=C(O)c1ccc2c(c1)NC(C(=O)O)C1CC=CC21` (stereo not drawn), the pIC50 [1] was > 5.30.

With `O=C(O)C1Nc2ccc(F)cc2C2C=CCC12` (stereo not drawn) the pIC50 [1] was > 5.30.

With `NC(=O)c1ccc2c(c1)C1C=CCC1C(C(=O)O)N2` (stereo not drawn) the pIC50 [1] was > 5.30.

For `COc1ccc2c(c1)C1C=CCC1C(C(=O)O)N2` (stereo not drawn), the pIC50 [1] was > 5.30.
